According to patent publication US8927717B1, “Thiochromeno[2,3-c]quinolin-12-one derivatives, preparation method and application thereof” (National Defense Medical Center, priority 2014, dated 2015):

Key:
[1] = tested on: CCRF-CEM; format: cell-based; conditions: Leukemia; 10^−5 molar; 48 hours; SRB
[2] = tested on: HL-60(TB); format: cell-based; conditions: Leukemia; 10^−5 molar; 48 hours; SRB
[3] = tested on: K-562; format: cell-based; conditions: Leukemia; 10^−5 molar; 48 hours; SRB
[4] = tested on: MOLT-4; format: cell-based; conditions: Leukemia; 10^−5 molar; 48 hours; SRB
[5] = tested on: RPMI-8226; format: cell-based; conditions: Leukemia; 10^−5 molar; 48 hours; SRB
[6] = tested on: SR; format: cell-based; conditions: Leukemia; 10^−5 molar; 48 hours; SRB
[7] = tested on: A549/ATCC; format: cell-based; conditions: Non-small cell lung cancer; 10^−5 molar; 48 hours; SRB
[8] = tested on: HOP-62; format: cell-based; conditions: Non-small cell lung cancer; 10^−5 molar; 48 hours; SRB
[9] = tested on: HOP-92; format: cell-based; conditions: Non-small cell lung cancer; 10^−5 molar; 48 hours; SRB
[10] = tested on: NCI-H226; format: cell-based; conditions: Non-small cell lung cancer; 10^−5 molar; 48 hours; SRB
[11] = tested on: NCI-H23; format: cell-based; conditions: Non-small cell lung cancer; 10^−5 molar; 48 hours; SRB
[12] = tested on: NCI-H460; format: cell-based; conditions: Non-small cell lung cancer; 10^−5 molar; 48 hours; SRB
[13] = tested on: NCI-H522; format: cell-based; conditions: Non-small cell lung cancer; 10^−5 molar; 48 hours; SRB
[14] = tested on: COLO 205; format: cell-based; conditions: Colon cancer; 10^−5 molar; 48 hours; SRB
[15] = tested on: HCC-2998; format: cell-based; conditions: Colon cancer; 10^−5 molar; 48 hours; SRB
[16] = tested on: HCT-116; format: cell-based; conditions: Colon cancer; 10^−5 molar; 48 hours; SRB
[17] = tested on: HCT-15; format: cell-based; conditions: Colon cancer; 10^−5 molar; 48 hours; SRB
[18] = tested on: HT29; format: cell-based; conditions: Colon cancer; 10^−5 molar; 48 hours; SRB
[19] = tested on: KM12; assay: cells; format: cell-based; conditions: Colon cancer; 10^−5 molar; 48 hours; SRB
[20] = tested on: SW-620; format: cell-based; conditions: Colon cancer; 10^−5 molar; 48 hours; SRB
[21] = tested on: SF-268; format: cell-based; conditions: CNS cancer; 10^−5 molar; 48 hours; SRB
[22] = tested on: SF-295; format: cell-based; conditions: CNS cancer; 10^−5 molar; 48 hours; SRB
[23] = tested on: SF-539; format: cell-based; conditions: CNS cancer; 10^−5 molar; 48 hours; SRB
[24] = tested on: SNB-19; format: cell-based; conditions: CNS cancer; 10^−5 molar; 48 hours; SRB
[25] = tested on: SNB-75; format: cell-based; conditions: CNS cancer; 10^−5 molar; 48 hours; SRB
[26] = tested on: U251; format: cell-based; conditions: CNS cancer; 10^−5 molar; 48 hours; SRB
[27] = tested on: LOX IMVI; format: cell-based; conditions: Melanoma; 10^−5 molar; 48 hours; SRB
[28] = tested on: MALME-3M; format: cell-based; conditions: Melanoma; 10^−5 molar; 48 hours; SRB
[29] = tested on: M14; format: cell-based; conditions: Melanoma; 10^−5 molar; 48 hours; SRB
[30] = tested on: MDA-MB-435; format: cell-based; conditions: Melanoma; 10^−5 molar; 48 hours; SRB
[31] = tested on: SK-MEL-2; format: cell-based; conditions: Melanoma; 10^−5 molar; 48 hours; SRB
[32] = tested on: SK-MEL-28; format: cell-based; conditions: Melanoma; 10^−5 molar; 48 hours; SRB
[33] = tested on: SK-MEL-5; format: cell-based; conditions: Melanoma; 10^−5 molar; 48 hours; SRB
[34] = tested on: UACC-257; format: cell-based; conditions: Melanoma; 10^−5 molar; 48 hours; SRB
[35] = tested on: UACC-62; format: cell-based; conditions: Melanoma; 10^−5 molar; 48 hours; SRB
[36] = tested on: IGROV1; format: cell-based; conditions: Ovarian cancer; 10^−5 molar; 48 hours; SRB
[37] = tested on: OVCAR-3; format: cell-based; conditions: Ovarian cancer; 10^−5 molar; 48 hours; SRB
[38] = tested on: OVCAR-4; format: cell-based; conditions: Ovarian cancer; 10^−5 molar; 48 hours; SRB
[39] = tested on: OVCAR-5; format: cell-based; conditions: Ovarian cancer; 10^−5 molar; 48 hours; SRB
[40] = tested on: OVCAR-8; format: cell-based; conditions: Ovarian cancer; 10^−5 molar; 48 hours; SRB
[41] = tested on: NCI/ADR-RES; format: cell-based; conditions: Ovarian cancer; 10^−5 molar; 48 hours; SRB
[42] = tested on: SK-OV-3; format: cell-based; conditions: Ovarian cancer; 10^−5 molar; 48 hours; SRB
[43] = tested on: 786-0; format: cell-based; conditions: Renal cancer; 10^−5 molar; 48 hours; SRB
[44] = tested on: A498; format: cell-based; conditions: Renal cancer; 10^−5 molar; 48 hours; SRB
[45] = tested on: ACHN; format: cell-based; conditions: Renal cancer; 10^−5 molar; 48 hours; SRB
[46] = tested on: CAKI-1; format: cell-based; conditions: Renal cancer; 10^−5 molar; 48 hours; SRB
[47] = tested on: RXF 393; format: cell-based; conditions: Renal cancer; 10^−5 molar; 48 hours; SRB
[48] = tested on: SN12C; format: cell-based; conditions: Renal cancer; 10^−5 molar; 48 hours; SRB
[49] = tested on: TK-10; format: cell-based; conditions: Renal cancer; 10^−5 molar; 48 hours; SRB
[50] = tested on: UO-31; format: cell-based; conditions: Renal cancer; 10^−5 molar; 48 hours; SRB
[51] = tested on: PC-3; format: cell-based; conditions: Prostate cancer; 10^−5 molar; 48 hours; SRB
[52] = tested on: DU-145; format: cell-based; conditions: Prostate cancer; 10^−5 molar; 48 hours; SRB
[53] = tested on: MCF7; format: cell-based; conditions: Breast cancer; 10^−5 molar; 48 hours; SRB
[54] = tested on: MDA-MB-231/ATCC; format: cell-based; conditions: Breast cancer; 10^−5 molar; 48 hours; SRB
[55] = tested on: HS 578T; format: cell-based; conditions: Breast cancer; 10^−5 molar; 48 hours; SRB
[56] = tested on: BT-549; format: cell-based; conditions: Breast cancer; 10^−5 molar; 48 hours; SRB
[57] = tested on: T-47D; format: cell-based; conditions: Breast cancer; 10^−5 molar; 48 hours; SRB
[58] = tested on: MDA-MB-486; format: cell-based; conditions: Breast cancer; 10^−5 molar; 48 hours; SRB
[59] = tested on: 60 cancer cell lines; assay: NCI 60-cell screen, SRB, whole panel (mean, delta, range); format: cell-based; conditions: 10^−5 molar, 48 hours, SRB
[60] = target: T1, TOP II (Topoisomerase II) (Homo sapiens, UniProt P11388); assay: TOP II-catalyzed relaxation of plasmid DNA assay; format: biochemical
T1 construct: purchased TopoGEN TG-2000H-1
Experimental: We also performed TOP II-catalyzed relaxation of plasmid DNA assays (FIG. 5-7) to evaluate if compounds could inhibit TOP II. […] The IC50 value of compounds 7, N7, N8, N14, N15, N18, and N19 were about 10, 10, 1, 10, 5, 1, and 1 μM, respectively (detect by TopoGEN TG2005H, TG-2000H-1).

T1 sequence (P11388 whole entry): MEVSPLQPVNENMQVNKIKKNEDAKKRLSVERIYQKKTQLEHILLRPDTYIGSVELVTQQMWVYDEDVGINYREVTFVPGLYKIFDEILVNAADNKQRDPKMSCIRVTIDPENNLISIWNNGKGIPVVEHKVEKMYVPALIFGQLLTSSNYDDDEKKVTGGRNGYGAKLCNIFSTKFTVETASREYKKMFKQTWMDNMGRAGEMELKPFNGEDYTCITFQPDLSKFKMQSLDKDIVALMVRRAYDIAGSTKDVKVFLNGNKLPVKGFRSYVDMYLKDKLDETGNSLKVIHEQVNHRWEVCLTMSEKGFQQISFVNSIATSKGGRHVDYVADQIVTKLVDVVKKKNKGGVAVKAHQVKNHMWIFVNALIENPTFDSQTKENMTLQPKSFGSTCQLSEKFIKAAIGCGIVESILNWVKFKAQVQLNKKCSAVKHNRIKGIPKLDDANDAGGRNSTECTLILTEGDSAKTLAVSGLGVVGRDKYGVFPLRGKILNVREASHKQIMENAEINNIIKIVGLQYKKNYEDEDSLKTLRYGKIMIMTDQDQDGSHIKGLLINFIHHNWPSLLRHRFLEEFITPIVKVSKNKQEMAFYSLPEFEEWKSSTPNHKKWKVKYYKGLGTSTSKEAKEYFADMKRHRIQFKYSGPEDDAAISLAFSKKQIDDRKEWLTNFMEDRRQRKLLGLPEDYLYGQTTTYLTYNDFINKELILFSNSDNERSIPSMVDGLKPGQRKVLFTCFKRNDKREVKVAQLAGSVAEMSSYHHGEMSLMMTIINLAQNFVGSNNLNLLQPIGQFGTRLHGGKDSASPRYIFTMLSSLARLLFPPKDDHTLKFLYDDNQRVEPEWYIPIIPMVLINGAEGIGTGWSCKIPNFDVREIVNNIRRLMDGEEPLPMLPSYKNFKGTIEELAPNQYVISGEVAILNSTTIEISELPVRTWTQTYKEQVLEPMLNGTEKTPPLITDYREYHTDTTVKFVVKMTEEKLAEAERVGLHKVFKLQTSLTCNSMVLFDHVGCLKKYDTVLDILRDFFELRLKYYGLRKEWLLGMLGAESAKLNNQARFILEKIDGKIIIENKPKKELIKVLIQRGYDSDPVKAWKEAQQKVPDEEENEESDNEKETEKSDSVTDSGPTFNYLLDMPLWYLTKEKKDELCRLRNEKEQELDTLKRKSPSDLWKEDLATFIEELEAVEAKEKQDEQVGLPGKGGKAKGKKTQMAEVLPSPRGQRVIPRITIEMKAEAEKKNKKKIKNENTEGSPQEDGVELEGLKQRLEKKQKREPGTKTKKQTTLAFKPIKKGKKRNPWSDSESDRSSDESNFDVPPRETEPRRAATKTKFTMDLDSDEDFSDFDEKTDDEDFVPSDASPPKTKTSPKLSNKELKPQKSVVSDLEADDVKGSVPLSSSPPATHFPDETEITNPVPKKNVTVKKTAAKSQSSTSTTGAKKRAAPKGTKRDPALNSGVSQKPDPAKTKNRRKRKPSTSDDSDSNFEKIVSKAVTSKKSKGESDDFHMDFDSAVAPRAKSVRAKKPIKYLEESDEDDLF

O=c1c2cc(Cl)ccc2sc2c(N3CCN(Cc4ccccc4)CC3)nc3ccccc3c12 [Compound 11, 6-(4-Benzylpiperazin-1-yl)-10-chloro-12H-thiochromeno[2,3-c]quinolin-12-one]
Growth percent CCRF-CEM [1]: 95.42% | Growth percent HL-60(TB) [2]: 100.96% | Growth percent K-562 [3]: 87.84% | Growth percent MOLT-4 [4]: 90.91% | Growth percent RPMI-8226 [5]: 96.63% | Growth percent SR [6]: 85.15% | Growth percent A549/ATCC [7]: 106.37% | Growth percent HOP-62 [8]: 87.72% | Growth percent HOP-92 [9]: 70.17% | Growth percent NCI-H226 [10]: 88.98% | Growth percent NCI-H23 [11]: 89.94% | Growth percent NCI-H460 [12]: 95.57% | Growth percent NCI-H522 [13]: 96.69% | Growth percent COLO 205 [14]: 105.64% | Growth percent HCC-2998 [15]: 99.32% | Growth percent HCT-116 [16]: 98.59% | Growth percent HCT-15 [17]: 94.51% | Growth percent HT29 [18]: 102.71% | Growth percent KM12 [19]: 107.75% | Growth percent SW-620 [20]: 93.08% | Growth percent SF-268 [21]: 100.42% | Growth percent SF-295 [22]: 94.34% | Growth percent SF-539 [23]: 108.56% | Growth percent SNB-19 [24]: 95.52% | Growth percent SNB-75 [25]: 82.62% | Growth percent U251 [26]: 96.69% | Growth percent LOX IMVI [27]: 94.22% | Growth percent MALME-3M [28]: 112.36% | Growth percent M14 [29]: 93.00% | Growth percent MDA-MB-435 [30]: 96.99% | Growth percent SK-MEL-2 [31]: 107.37% | Growth percent SK-MEL-28 [32]: 104.19% | Growth percent SK-MEL-5 [33]: 98.38% | Growth percent UACC-257 [34]: 95.39% | Growth percent UACC-62 [35]: 96.00% | Growth percent IGROV1 [36]: 93.49% | Growth percent OVCAR-3 [37]: 101.69% | Growth percent OVCAR-4 [38]: 102.43% | Growth percent OVCAR-5 [39]: 111.92% | Growth percent OVCAR-8 [40]: 98.54% | Growth percent NCI/ADR-RES [41]: 98.31% | Growth percent SK-OV-3 [42]: 94.79% | Growth percent 786-0 [43]: 105.57% | Growth percent A498 [44]: 94.17% | Growth percent ACHN [45]: 96.39% | Growth percent CAKI-1 [46]: 94.03% | Growth percent RXF 393 [47]: 100.71% | Growth percent SN12C [48]: 97.70% | Growth percent TK-10 [49]: 124.99% | Growth percent UO-31 [50]: 64.91% | Growth percent PC-3 [51]: 89.12% | Growth percent DU-145 [52]: 111.61% | Growth percent MCF7 (Table 2: MCF) [53]: 68.32% | Growth percent MDA-MB-231/ATCC [54]: 89.11% | Growth percent HS 578T [55]: 76.42% | Growth percent BT-549 [56]: 114.05% | Growth percent T-47D [57]: 89.22% | Growth percent MDA-MB-486 [58]: 98.53% | Growth percent, Delta ([59]; delta over the cell panel): 31.28% | Growth percent, Mean ([59]; mean over the cell panel): 96.19% | Growth percent, Range ([59]; range over the cell panel): 60.08% | melting point: 191 to 193 °C

CCN(CC)CCNc1nc2ccccc2c2c(=O)c3cc(Cl)ccc3sc12 [Compound N8, 10-Chloro-6-((2-(diethylamino)ethyl)amino)-12H-thiochromeno[2,3-c]quinolin-12-one]
IC50 ([60]; five different concentrations, TopoGEN TG2005H, TG-2000H-1, read-out: IC50 value, TOP II mediated supercoiled DNA relaxation): ~1 µM | inhibitory effect in TOP II relaxation assay compared with VP-16 ([60]; primary assay at 25 and/or 50 μM): more potent inhibitory effects than the positive agent VP-16 | melting point: 152 to 153 °C
